Numbered stars: 1 amine (or outer) side, 2 acyl side, 3 side chain; on linkers, the order of the positions; unused ones are H or OH. Square brackets hold non-standard residues; d marks the D form. Peptide text beside a SMILES is read from it. Gly(N-CH2CH2-imidazol-4-yl) = O=C(O)CNCCc1c[nH]cn1; X3 = C[C@@H](c1ccc2ccccc2c1)N(CC(=O)[*:2])[*:1]; N(1S-Me-propyl)Gly = CC[C@H](C)NCC(=O)O; X1 = CC(C)[C@H](C)N(CC(=O)[*:2])[*:1]; Nspe = C[C@H](NCC(=O)O)c1ccccc1; Nlys = NCCCCNCC(=O)O
How the values were obtained:
[1] = test system: human erythrocytes; test: Hemolysis assay; assay type: cell-based; conditions: for HD10 (10% hemolytic dose) / HD50 (50% hemolytic dose): red cells of human, 1 h
Experimental: Hemolysis assays. Erythrocytes were isolated from freshly drawn, heparanized human blood and resuspended to 20 vol % in PBS (pH 7.4). In a 96-well microtiter plate, 100 μL erythrocyte suspension was added to 100 μL peptoid solution in PBS (prepared by 1:2 serial dilutions), or 100 μL PBS in the case of negative controls. 100% hemolysis wells contained 100 μL blood cell suspension with 100 μL 0.2 vol % Triton X-100. The plate was incubated for 1 h at 37° C., then each well was diluted with 150 μL PBS. The plate was then centrifuged at 1200 g for 15 min, 100 μL of the supernatant from each well transferred to a fresh microtiter plate, and A350 measured.
Hemolysis assays. Erythrocytes were isolated from freshly drawn, heparanized human blood and resuspended in PBS (pH 7.4) to make a 20% volume suspension. Peptoid solutions were prepared by serial dilution (2:1) in a 96-well microtiter plate. For test wells, 100 μL of erythrocyte suspension was added to 100 μL of peptoid solution in PBS; PBS without peptoid was used as the negative control and 0.2 vol % Triton X-100 as the positive control that indicates 100% hemolysis. After 1 hour incubation at 37° C., each well was diluted with 150 μL PBS. Plates were then centrifuged at 1,200×g for 15 minutes to pellet the cells. 30 μL of the supernatant from each well were transferred to the corresponding well of a second 96-well plate that contains 70 μL PBS.

[2] = MTS assay, metabolic inhibition; assay type: cell-based, mouse
Experimental: (§1) The potencies of all compounds were determined against representative Gram-negative (E. coli ATCC 35218) and Gram-positive (B. subtilis ATCC 6633) biosafety level 1 (BSL1) organisms. In addition to hemolytic activity, the conventional measure of toxicity to mammalian cells, the effect of each ampetoid on NIH 3T3 mouse fibroblast cells was determined using the MTS tetrazolium salt-based calorimetric assay. While hemolysis measures the degree to which erythrocytes are lysed, the MTS assay indirectly quantifies the extent to which cellular metabolic activity is inhibited.
MTS assays. NIH/3T3 cells (ATCC Corporation) cultured at 37° C. and 5% CO2 in complete Dulbecco's modified eagle's media (CDMEM) supplemented with 1% sodium pyruvate, 1% penicillin-streptomycin, 1.5 g/L NaHCO3, and 10% fetal bovine serum. Cells were seeded at a density of 5,000 cells per well for NIH/3T3 cells in 96-well plates (100 μl total volume). A peptoid solution plate (100 μL total volume per well) was prepared by serial dilution of aqueous peptoid stock solution in Hank's balanced salt solution (HBSS) media. The day-old cell monolayers were washed with HBSS and media was replaced with 100 μL HBSS. The contents of the peptoid solution plate were transferred onto corresponding wells of the cell monolayer plate, and 40 μL MTS reagent (Promega, Inc.) was added to each well. After incubating for 3 hours at 37° C., absorbance at 490 nm was determined. […] The average of six replicates is reported.

[3] = test system: B. subtilis (ATCC 6633); assay type: cell-based; conditions: ATCC 6633
Experimental: (§2) Whereas the preceding generation of molecules was designed to elucidate structure function relationships of specific molecular parameters (chirality, length, hydrophobicity, etc.), another generation compounds were designed explicitly to explore effects on selectivity. Antimicrobial activity of these compounds was tested against bacterial strains E. coli (ATTC 35218) and B. subtilis (ATTC 6633) in cation-adjusted MHB using the microdilution protocols previously described. The sequences, antimicrobial activities, hemolytic activities, and metabolic inhibitory concentrations against NIH 3T3 mouse fibroblast cells are summarized in Table 3 and the rationale of their design is described below.
as §1
(§3) Screening antibacterial assays. MICs were determined in 96-well microtiter plates in accordance with CLSI M7-A6 protocols. Peptoid solutions with 50 μL total volume were prepared using 2:1 serial dilutions. 50 μL of bacteria inoculum (1×10^6 CFU/mL) prepared in cation-adjusted Mueller-Hinton broth (CAMHB) was added to test wells. Control wells contained 100 μL MHB (no growth) or 50 μL inoculums with 50 μL MHB with no peptoid. […] Reported values were reproducible over three experiments, each containing two parallel trials.

[4] = test system: E. coli (ATCC 35218); assay type: cell-based; conditions: ATCC 35218
Experimental: as §2, §1, §3

Row | Structure (SMILES) | HD10 [1] | HD50 [1] | IC50 [2] [µM] | HD10 (10% hemolytic dose) [1] | HD50 (50% hemolytic dose) [1] | other results
1 | C[C@H](NCC(=O)N(CC(=O)N(CCCCN)CC(=O)N(CC(=O)N(CCCCN)CC(=O)N(CC(=O)N(CCCCN)CC(=O)N(CC(=O)N(CC(=O)N(CC(=O)N(CC(=O)N(CCCCN)CC(N)=O)[C@@H](C)c1ccccc1)[C@@H](C)c1ccccc1)[C@@H](C)c1ccccc1)[C@@H](C)c1ccccc1)[C@@H](C)c1ccccc1)[C@@H](C)c1ccccc1)[C@@H](C)c1ccccc1)c1ccccc1 [1scr, H-(Nspe)2-(Nlys-Nspe)3-(Nspe)3-Nlys-NH2] (H-[Nspe][Nspe][Nlys][Nspe][Nlys][Nspe][Nlys][Nspe][Nspe][Nspe][Nspe][Nlys]-NH2) | 64 µM | > 200 µM | 8.5 | – | – | –
2 | C[C@@H](c1ccccc1)N(CC(N)=O)C(=O)CN(CCCCN)C(=O)CN(C(=O)CN(C(=O)CN(CCCCN)C(=O)CN(C(=O)CN(C(=O)CN(CCCCN)C(=O)CN(C(=O)CN(C(=O)CNCCCCN)[C@@H](C)c1ccccc1)[C@@H](C)c1ccccc1)[C@@H](C)c1ccccc1)[C@@H](C)c1ccccc1)[C@@H](C)c1ccccc1)[C@@H](C)c1ccccc1 [111mer, H-(Nlys-Nspe-Nspe)3-Nlys-Nspe-NH2] (H-[Nlys][Nspe][Nspe][Nlys][Nspe][Nspe][Nlys][Nspe][Nspe][Nlys][Nspe]-NH2) | 103 µM | > 200 µM | 11 | – | – | –
3 | C[C@@H](c1ccccc1)N(CC(N)=O)C(=O)CN(Cc1ccccc1)C(=O)CN(CCCCN)C(=O)CN(Cc1ccccc1)C(=O)CN(Cc1ccccc1)C(=O)CN(CCCCN)C(=O)CN(Cc1ccccc1)C(=O)CN(Cc1ccccc1)C(=O)CN(CCCCN)C(=O)CN(Cc1ccccc1)C(=O)CN(Cc1ccccc1)C(=O)CNCCCCN [1ach-Nspe12, H-(Nlys-Npm-Npm)3-(Nlys-Npm-Nspe)-NH2] | 164 µM | > 200 µM | 15 | – | – | B. subtilis MIC [3]: 1.6 µM
4 | C[C@@H](c1ccccc1)N(CC(=O)N(CCc1c[nH]cn1)CC(=O)N(CCCCN)CC(=O)N(CC(=O)N(CCc1c[nH]cn1)CC(=O)N(CCCCN)CC(=O)N(CC(=O)N(CCc1c[nH]cn1)CC(=O)N(CCCCN)CC(=O)N(CC(=O)N(CCc1c[nH]cn1)CC(N)=O)[C@@H](C)c1ccccc1)[C@@H](C)c1ccccc1)[C@@H](C)c1ccccc1)C(=O)CNCCCCN [1-Nhis3,6,9,12] (H-[Nlys][Nspe][Gly(N-CH2CH2-imidazol-4-yl)][Nlys][Nspe][Gly(N-CH2CH2-imidazol-4-yl)][Nlys][Nspe][Gly(N-CH2CH2-imidazol-4-yl)][Nlys][Nspe][Gly(N-CH2CH2-imidazol-4-yl)]-NH2) | >200/>200 μM | >200/>200 μM | – | – | – | B. subtilis MIC [3]: 100 µM; E. coli MIC [4]: >100 µM
5 | C[C@@H](c1ccccc1)N(CC(N)=O)C(=O)CN(C(=O)CN(C(=O)CN(C(=O)CN(C(=O)CN(C(=O)CN(C(=O)CN(C(=O)CN(CCCCN)C(=O)CN(CCCCN)C(=O)CN(CCCCN)C(=O)CNCCCCN)[C@@H](C)c1ccccc1)[C@@H](C)c1ccccc1)[C@@H](C)c1ccccc1)[C@@H](C)c1ccccc1)[C@@H](C)c1ccccc1)[C@@H](C)c1ccccc1)[C@@H](C)c1ccccc1 [1block, H-(Nlys)4-(Nspe)8-NH2] | – | – | – | 18 µM | 73 µM | –
6 | CC[C@H](C)N(CC(=O)N(CC(N)=O)[C@@H](C)c1ccc2ccccc2c1)C(=O)CN(CCCCN)C(=O)CN(C(=O)CN(C(=O)CN(CCCCN)C(=O)CN(C(=O)CN(C(=O)CN(CCCCN)C(=O)CN(C(=O)CN(C(=O)CNCCCCN)[C@@H](C)CC)[C@@H](C)c1ccccc1)[C@@H](C)CC)[C@@H](C)c1ccc2ccccc2c1)[C@@H](C)CC)[C@@H](C)c1ccccc1 [2-Nsna6,12] (H-[Nlys][N(1S-Me-propyl)Gly][Nspe][Nlys][N(1S-Me-propyl)Gly][X3][Nlys][N(1S-Me-propyl)Gly][Nspe][Nlys][N(1S-Me-propyl)Gly][X3]-NH2) | – | – | – | 55 µM | > 120 µM | –
7 | CC(C)[C@H](C)N(CC(=O)N(CCCCN)CC(=O)N(CC(=O)N(CC(=O)N(CCCCN)CC(=O)N(CC(=O)N(CC(=O)N(CCCCN)CC(=O)N(CC(=O)N(CC(N)=O)[C@@H](C)c1ccccc1)[C@@H](C)c1ccccc1)[C@@H](C)C(C)C)[C@@H](C)C(C)C)[C@@H](C)c1ccccc1)[C@@H](C)c1ccccc1)C(=O)CN(C(=O)CNCCCCN)[C@@H](C)C(C)C [1-Nsdp2,3,8,9, H-(Nlys-Nsdp-Nsdp-Nlys-Nspe-Nspe)2-NH2] (H-[Nlys][X1][X1][Nlys][Nspe][Nspe][Nlys][X1][X1][Nlys][Nspe][Nspe]-NH2) | 77 µM | > 200 µM | 19 | – | – | –
8 | CC[C@H](C)N(CC(=O)N(CC(=O)N(CC(=O)N(CCCCN)CC(N)=O)[C@@H](C)c1ccccc1)[C@@H](C)CC)C(=O)CN(CCCCN)C(=O)CN(C(=O)CN(CCCCN)C(=O)CN(C(=O)CN(C(=O)CN(C(=O)CN(C(=O)CNCCCCN)[C@@H](C)CC)[C@@H](C)c1ccccc1)[C@@H](C)CC)[C@@H](C)c1ccccc1)[C@@H](C)c1ccccc1 [2scrambled, H-Nlys-Nssb-Nspe-Nssb-Nspe-Nlys-Nspe-Nlys-Nssb-Nssb-Nspe-Nlys-NH2] (H-[Nlys][N(1S-Me-propyl)Gly][Nspe][N(1S-Me-propyl)Gly][Nspe][Nlys][Nspe][Nlys][N(1S-Me-propyl)Gly][N(1S-Me-propyl)Gly][Nspe][Nlys]-NH2) | – | – | – | >120/>120 μM | >120/>120 μM | no hemolysis up to [1]: > 120 µM
9 | C[C@@H](c1ccccc1)N(CC(N)=O)C(=O)CN(C(=O)CN(CCC(=O)O)C(=O)CN(C(=O)CN(C(=O)CN(CCC(=O)O)C(=O)CN(C(=O)CN(C(=O)CN(CCC(=O)O)C(=O)CN(C(=O)CN(C(=O)CNCCC(=O)O)[C@@H](C)c1ccccc1)[C@@H](C)c1ccccc1)[C@@H](C)c1ccccc1)[C@@H](C)c1ccccc1)[C@@H](C)c1ccccc1)[C@@H](C)c1ccccc1)[C@@H](C)c1ccccc1 [1-Nglu1,4,7,10] | – | – | – | – | >110/>110 μM | –
10 | C[C@@H](c1ccccc1)N(CC(N)=O)C(=O)CN(C(=O)CN(CCC(=O)O)C(=O)CN(C(=O)CN(C(=O)CN(CCCCN)C(=O)CN(C(=O)CN(C(=O)CN(CCC(=O)O)C(=O)CN(C(=O)CN(C(=O)CNCCCCN)[C@@H](C)c1ccccc1)[C@@H](C)c1ccccc1)[C@@H](C)c1ccccc1)[C@@H](C)c1ccccc1)[C@@H](C)c1ccccc1)[C@@H](C)c1ccccc1)[C@@H](C)c1ccccc1 [1-Nglu4,10] | – | – | – | 19 µM | 40 µM | –
11 | CC[C@H](C)N(CC(=O)N(CC(N)=O)[C@@H](C)c1ccccc1)C(=O)CN(CCCCN)C(=O)CN(C(=O)CN(C(=O)CN(CCCCN)C(=O)CN(C(=O)CN(C(=O)CN(CCCCN)C(=O)CN(C(=O)CN(C(=O)CNCCCCN)[C@@H](C)CC)[C@@H](C)c1ccccc1)[C@@H](C)CC)[C@@H](C)c1ccccc1)[C@@H](C)CC)[C@@H](C)c1ccccc1 [compound 2, H-(Nlys-Nssb-Nspe)4-NH2] (H-[Nlys][N(1S-Me-propyl)Gly][Nspe][Nlys][N(1S-Me-propyl)Gly][Nspe][Nlys][N(1S-Me-propyl)Gly][Nspe][Nlys][N(1S-Me-propyl)Gly][Nspe]-NH2) | – | – | – | >120/>120 μM | >120/>120 μM | –

— US20100036088A1, “Selective poly-N-substituted glycine antibiotics” (priority 2008, published 2010)
